Experimental data as given in patent publication EP3833345B1, “SMALL MOLECULE-INHIBITORS OF 6-PHOSPHOFRUCTO-1-KINASE FOR REDUCING LACTATE GENERATION BY CANCER CELLS” (Kemijski Institut, priority 2018, dated 2020).
“Also recorded” adds a separate entry of the source.

Tests used:
MDA-MB-231 cells = experiment: cytotoxicity in MDA-MB-231 cells (LDH kit); assay type: cell-based
Method: (§1) Lactate generation, growth yield and survival under normal and inhibitory conditions of three different tumorigenic cells lines were determined in more detailed measurements. […] Cytotoxicity was measured by the Lactate dehydrogenase (LDH) kit (Roche).
Inhibitors No. 23, 29, 30 and 31 were tested for preventing lactate generation by the MDA-MB-231 cells.

Jurkat cells [1] = experiment: lactate excretion by Jurkat cells (enzymatic L-lactic acid kit); assay type: cell-based, human
Method: The cells were incubated in 1 mL volume (24 well plates) at 5% CO2 and 37°C. The inhibitors were added in 100 µM concentration. As a control, equivalent amount of DMSO as used for the addition of inhibitors was supplemented to the medium. The tests started with 1×10^5 cells per mL. Extracellular lactate excreted by the Jurkat cells was measured in the supernatant of the growth medium after the cells were removed by centrifugation at 1500 rpm for 5 minutes. Lactate concentration was determined enzymatically using L-Lactatic acid kit (K-LATE, Megazyme, Ireland).
Measurements of lactate excretion in the tumorigenic Jurkat cells and the cells treated with two selected inhibitors at different concentrations were repeated by more detailed measurements. The growth conditions were identical to those described in Experiment 2. No significant difference in lactate excretion could be observed by the treated and untreated cells during the initial stage of growth that lasted for approximately 12 hours. Later on lactate excretion by the Jurkat cells ceased in the presence of both inhibitors.

[2] = target: T1, native human (85 kDa) 6-phosphofructo-1-kinase (PFK-M), nPFK-M (Homo sapiens, UniProt P08237); experiment: in vitro inhibition of purified recombinant native PFK-M enzyme; conditions: inhibitor range 10 - 50 µM, Figure 3
T1 sequence (P08237 1-780): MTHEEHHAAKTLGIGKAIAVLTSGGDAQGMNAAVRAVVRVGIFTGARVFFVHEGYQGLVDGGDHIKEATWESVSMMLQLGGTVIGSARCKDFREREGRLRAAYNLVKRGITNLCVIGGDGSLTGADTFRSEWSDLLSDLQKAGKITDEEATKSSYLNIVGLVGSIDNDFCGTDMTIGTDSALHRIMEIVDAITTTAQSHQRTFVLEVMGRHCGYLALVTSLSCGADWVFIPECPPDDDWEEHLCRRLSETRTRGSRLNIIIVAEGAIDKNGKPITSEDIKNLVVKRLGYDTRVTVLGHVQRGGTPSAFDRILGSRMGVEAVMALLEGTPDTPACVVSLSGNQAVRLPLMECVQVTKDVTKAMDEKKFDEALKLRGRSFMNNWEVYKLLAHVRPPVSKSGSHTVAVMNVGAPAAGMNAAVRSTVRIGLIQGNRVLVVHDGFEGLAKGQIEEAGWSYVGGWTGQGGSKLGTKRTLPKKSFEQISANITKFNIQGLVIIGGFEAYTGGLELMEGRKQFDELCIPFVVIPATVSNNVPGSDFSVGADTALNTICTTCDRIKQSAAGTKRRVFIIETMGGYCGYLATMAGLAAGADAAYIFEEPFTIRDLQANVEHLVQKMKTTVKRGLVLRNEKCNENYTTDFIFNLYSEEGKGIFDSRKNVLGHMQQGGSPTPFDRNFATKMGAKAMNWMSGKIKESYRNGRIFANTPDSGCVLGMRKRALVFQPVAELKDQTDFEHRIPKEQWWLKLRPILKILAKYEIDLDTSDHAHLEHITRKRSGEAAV

Jurkat cells [3] = experiment: long-term fed-batch cultivation of Jurkat cells (18 days); conditions: 100 µM
Jurkat cells [4] = experiment: growth and survival of Jurkat cells (Countess, Trypan blue); assay type: cell-based
Method: The effects of both inhibitors were tested also on growth of the non-adherent Jurkat cells. Total amount of cells and the number of dead cells was determined by the Countess (Invitrogen, Carlsbad, CA). […].

Caco-2 cells = experiment: cytotoxicity in Caco-2 cells (lactate dehydrogenase (LDH) kit); assay type: cell-based
Method: as §1

Jurkat cells [5] = experiment: NADH levels in Jurkat cells (NADH/NAD fluorometric assay kit); assay type: cell-based, human; conditions: 24 hours after addition, different concentrations
Method: By inhibiting modified PFK-M enzyme in the cancer cells, glycolytic flux should be decreased and concomitantly NADH levels reduced. To verify that, the amounts of reduced pyridine nucleotide was measured by NADH/NAD fluorometric assay kit (Abcam). The Jurkat cells were seeded into the wells of 96 wells plate at 5×10^5 cells per mL. The untreated cells (control) and the cells with specified amounts of added Inhibitors No. 3 and No. 9 were incubated for 24 hours.

[6] = sequential addition at 24-hour intervals, 92 hours, average over medium without and with inhibitor
[7] = single addition, average over control and different concentrations of inhibitor

O=C(CSc1nnc(-c2ccc3c(c2)OCO3)o1)Nc1ccon1 [Inhibitor No. 3, 2-[(5-benzo[1,3]dioxol-5-yl-1,3,4-oxadiazol-2-yl)sulfanyl]-N-isoxazol-3-yl-acetamide]
average percentages of dead cells, MDA-MB-231, sequential re-insertion (MDA-MB-231 cells; [6]): 2,05±0,18% | average percent of dead MDA-MB-231 cells (MDA-MB-231 cells; [7]): 7,2±0,47% | time at which lactate production was averted (Jurkat cells [1]; inhibitor concentrations lower than 200 µM): about 24 hours | lactate excretion by the Jurkat cells (Jurkat cells [1]; preliminary test, 100 µM inhibitor, followed for 48 hours, versus DMSO control): Significantly lowered lactate excretions; also recorded: effectively prevented excretion | inhibition of the activity of native nPFK-M enzyme [2]: remarkably reduced also the activity of native nPFK-M enzyme | viability of the Jurkat cells, long-term (Jurkat cells [3]; fed-batch, 18 days): slight decrease of viability | duration of slow reduction of lactate generation rate after the addition of inhibitor (Jurkat cells [3]; long term experiment): 24 to 48 h | dead cells (Jurkat cells [4]; Jurkat cells stained with Tripan blue): 3,21±0,27% | effect on growth of Jurkat cells (total cell numbers) (Jurkat cells [4]; different concentrations, 72 hours): remarkable reduction of growth rate at concentrations higher than 25 µM | average percentages of dead cells, Caco-2, sequential re-insertion (Caco-2 cells; [6]): 5,38±0,4% | average percent of dead cells, Caco-2 (Caco-2 cells; [7]): 3,99±0,08% | NADH levels (Jurkat cells [5]): steadily decreased in dose dependent manner
